In article PMC6629894, “Ruthenium Complexes Containing Heterocyclic Thioamidates Trigger Caspase-Mediated Apoptosis Through MAPK Signaling in Human Hepatocellular Carcinoma Cells” (Frontiers in Oncology, 2019):

Columns and labels:
p38 MAPK (pT180/pY182) = experiment: Phosflow analysis of phosphorylated MAPK; assay type: cell-based, human; settings: HepG2, 10 μM
Method: (§1) Phosphorylated extracellular signal-regulated kinase (ERK), JNK/SAPK and p38 MAPK were quantified by flow cytometry as previously described ([26]). The cells were collected and resuspended in 0.5–1 mL of 4% formaldehyde and fixed for 10 min at 37°C. Then, the tubes were chilled on ice for 1 min. The cells were permeabilized by slowly adding ice-cold 100% methanol to the cooled cells while gently vortexing to a final concentration of 90% methanol and incubating for 30 min on ice. After washing with incubation buffer (0.5% bovine serum albumin in PBS), PE mouse anti-JNK/SAPK (pT183/pY185) (ID 562480), PE mouse anti-p38 MAPK (pT180/pY182) (ID 612565), PE mouse anti-ERK1/2 (pT202/pY204) (ID 612566) or PE mouse IgG1,κ isotype control (ID 555749) antibodies, all from BD Biosciences, were added and incubated for 1 h at room temperature. Finally, the cells were washed with PBS, and the cell fluorescence was measured by flow cytometry.
(§2) For all flow cytometry analyses, at least 10^4 events were recorded per sample using a BD LSRFortessa cytometer, BD FACSDiva Software (BD Biosciences) and FlowJo Software 10 (FlowJo Lcc; Ashland, OR, USA). Cellular debris was omitted from the analysis.

ERK1/2 (pT202/pY204) = experiment: Phosflow analysis of phosphorylated MAPK; assay type: cell-based, human; settings: HepG2, 10 μM, 15 min
Method: as §1, §2

Structure (SMILES): Cn1ccnc1[S-].F[P-](F)(F)(F)(F)F.[Ru+2].c1ccc(-c2ccccn2)nc1.c1ccc(P(CCCCP(c2ccccc2)c2ccccc2)c2ccccc2)cc1 [Complex 1, [Ru(mmi)(bipy)(dppb)]PF6]
- phosphorylation of p38 MAPK (p38 MAPK (pT180/pY182)): no significant increase
- phosphorylation of ERK1/2 (ERK1/2 (pT202/pY204)): induced the phosphorylation of ERK1/2
